For one data set, the system named is Weizenpflanzen. As to conditions: in vivo.
In data set [1] the target is Amylase aus Aspergillus oryzae (Aspergillus oryzae, UniProt P0C1B3). As to the kind of experiment: Amylase activity assay in microtiter plates (dye-labelled starch substrate), commercial enzymes. The class given is biochemical. To be noted: both Aspergillus amylases (35 U/mg Fluka, 200 U/mg Sigma); result in words. From the text:
(§1) Diese Methode basiert auf folgendem Prinzip:

The next data set has as its system Erbsen. As to the kind of experiment: Plant tolerance: germination of peas after imbibition in inhibitor solution. The class given is in vivo. As to conditions: imbibition in a solution of 1 mg/ml; result in words.
In a further data set the target is T1, Humanspeichelamylase (Homo sapiens, UniProt P0DUB6).
T1 construct: purchased Sigma
T1 sequence (P0DUB6 16-511): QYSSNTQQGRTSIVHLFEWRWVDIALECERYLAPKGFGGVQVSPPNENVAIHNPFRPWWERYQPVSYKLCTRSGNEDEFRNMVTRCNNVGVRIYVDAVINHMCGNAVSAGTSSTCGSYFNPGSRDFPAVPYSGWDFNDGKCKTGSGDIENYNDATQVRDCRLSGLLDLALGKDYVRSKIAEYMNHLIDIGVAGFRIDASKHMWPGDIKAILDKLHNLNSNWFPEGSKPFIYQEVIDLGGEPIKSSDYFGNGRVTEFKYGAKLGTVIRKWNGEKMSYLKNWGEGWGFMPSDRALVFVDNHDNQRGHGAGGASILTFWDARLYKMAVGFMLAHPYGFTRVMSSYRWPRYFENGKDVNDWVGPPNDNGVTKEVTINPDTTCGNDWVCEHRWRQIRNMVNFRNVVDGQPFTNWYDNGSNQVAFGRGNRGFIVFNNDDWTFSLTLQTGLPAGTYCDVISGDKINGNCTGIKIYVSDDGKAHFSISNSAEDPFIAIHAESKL
As to the kind of experiment: Amylase activity assay in microtiter plates (dye-labelled starch substrate), commercial enzyme. The class given is biochemical. To be noted: result in words.
Text: as §1

The next data set relates to Amylase aus Bacillus sp. The data set is described as above. It counts as biochemical. To be noted: result in words.
Text: as §1

For data set [2], the system named is Amylasen aus Kulturfiltrat (Strohextrakt) von in vitro angezogenem Fusarium graminearum. It counts as biochemical. To be noted: result in words.
The subject of data set [3] is Amylasen von mit F. graminearum infizierten Pflanzen. It counts as biochemical, Fusarium graminearum. To be noted: result in words.
The test system of data set [4] is Fusarium graminearum. The class given is in vivo. As to conditions: roots, 2 weeks after sowing.
For data set [5], the system named is Fusarium graminearum. As to the kind of experiment: microbe, parasite or virus in culture. The class given is cell-based. To be noted: result in words.
For data set [6], the system named is Blumeria graminis f. sp. tritici. As to the kind of experiment: Powdery mildew rating on sprayed wheat plants (MOLL et al. 1996). The class given is in vivo. To be noted: 7 dpi; spray treatment at 3-leaf stage; AI-1 and AI-2 1 mg/ml, CI 100 µg/ml; Kontrolle 60. The text has this:
Nach einer Sprühbehandlung der Weizenpflanzen im 3-Blatt-Stadium und anschließender Inokulation (nach Abtrocknen) mit Mehltau Blumeria graminis f. sp. tritici sind eindeutige Hemmeffekte zu erkennen (Figur 25-27). Eine Bonitur nach MOLL et al. (1996) ergab für den Amylase-Inhibitor AI-1 eine Befallsreduktion von 60% auf 7%, für den Amylase-Inhibitor AI-2 auf 1 % und für den Cellulase-Inhibitor CI auf 10% (Tabelle 3). Tab. 3: Bonitur des Mehltaubefalls (Blumeria graminis f. sp. tritici) nach MOLL et al. (1996) 7 dpi.

“Also recorded” adds a separate entry of the source. Like-named read-outs stand apart in the source and are kept apart here.

With `OCCN1C[C@H](O)[C@@H](O)[C@H](O)[C@H]1CO` [AI-2, Miglitol], the “Einfluss auf das ausgewachsene Blatt” value in the data set on Weizenpflanzen is “keinen Einfluss auf das ausgewachsene Blatt”. For the same compound, the “Hemmung der Keimung” value in the data set on Weizenpflanzen and in the data set with Erbsen was “vollständig” in each case. In addition, in the data set with Weizenpflanzen, the “Hemmung der Keimung der Weizenpflanzen” value is “so stark hemmte, dass sich Jungpflanzen nicht entwickeln konnten”. Moreover, the “Hemmung der Enzymaktivität” value in data set [1] is on record as “weder die Humanamylase noch die verwendeten käuflichen Amylasen aus Bakterien bzw. Pilzen hemmt; also recorded: nicht zu hemmen vermochte”; on Humanspeichelamylase it was “weder die Humanamylase noch die verwendeten käuflichen Amylasen aus Bakterien bzw. Pilzen hemmt; also recorded: nicht zu hemmen vermochte”; in the data set with Amylase aus Bacillus sp., “weder die Humanamylase noch die verwendeten käuflichen Amylasen aus Bakterien bzw. Pilzen hemmt; also recorded: nicht zu hemmen vermochte”; in [2], “konnte weder die im Handel erhältlichen Amylasen bzw. Cellulasen der verschiedenen Mikroorganismen noch die von Fusarium graminearum in vitro oder in der Pflanze gebildeten Amylasen inhibieren”; in [3] it was “wirkungslos; also recorded: keine Wirkung; also recorded: konnte weder die im Handel erhältlichen Amylasen bzw. Cellulasen der verschiedenen Mikroorganismen noch die von Fusarium graminearum in vitro oder in der Pflanze gebildeten Amylasen inhibieren”. For the same compound, the “Fusarium Protein Equivalent (µg /g), Mean” value in the data set on Fusarium graminearum [4] (infected with F.g. + inhibitor, infected control 1261,2) is 813,0 µg /g; with Fusarium graminearum [4] (not infected (K) + inhibitor) it was 7,6 µg /g. Also, the “Einfluss auf das Wachstum von Fusarium graminearum” value in the data set with Fusarium graminearum [5] (Saccharose as sole C source, up to 14 days) was “keinen Einfluss”. For the same compound, the “Einfluss auf das Pilzwachstum” value with Fusarium graminearum [5] (Stärke as sole C source) is recorded as “keinen Einfluss”. The “Einfluss auf das Wachstum des Pilzes in vitro” value with Fusarium graminearum [5] is “keinerlei hemmenden Einfluss”. Besides, the “Befall (%)” value in data set [6] was 1%.

(Values after patent EP2145538A1 (priority 2008, dated 2010).)
